Reference: patent US20090269795A1, “Mutant alpha4betadelta GABAA receptor and methods of treating anxiety or irritability” (priority 2007, published 2009)

Assays:
[1] = test system: α4β3δ receptors; assay: Whole cell patch clamp of GABA-gated current, recombinant receptors in HEK-293 cells; assay type: cell-based, human or mouse α4, rat β3, human δ; conditions: 30 nM THP
Text: (§1) Recombinant receptors: Transfection—Plasmids obtained from S. Vicini (rat α1, α5, β2, β3 and γ2), P. Whiting (human α4 and δ) and N. L. Harrison (mouse α4) were propagated in E coli DH5α and prepared using Qiagen Maxi- or Midi-prep kits. (Rat, mouse and human α1, β2, β3 and γ2 subunits are identical or nearly identical.) All receptors were transfected at a 1:1:1 ratio, except α1β2γ2 (1:1:5)^12, α4βδ (5:1:5)^13 and α4β2γ2 (5:1:1). HEK-293 cells were maintained in medium (DMEM:Ham's F-12 1:1) supplemented with 10% fetal calf serum at 37° C. in a humid 5% CO2 atmosphere. Cells were transfected using calcium phosphate or Polyfect (Qiagen) and co-transfected with enhanced green fluorescent protein (ratio of DNA to eGFP was 6:1 or 10:1 depending on the DNA concentration) for visualization. α4-containing GABAA receptors required 2-3 d for maximal levels of expression; all other receptors were recorded 1-2 d after transfection. Because mouse α4 and human α4-containing receptors yielded the same results, the currents were averaged together.
(§2) Whole cell patch clamp recording—GABA-gated currents were recorded at room temperature (20-22° C.) at a holding potential of −50 mV^14. […] Currents were recorded using an Axopatch 1D amplifier (Axon Instruments) filtered at 2 kHz (four-pole Bessel filter) and detected at 10 kHz (pClamp 5.1). […]

[2] = test system: α4β2γ2 receptors; assay: as above; assay type: cell-based, human or mouse α4, rat β2, rat γ2; conditions: 30 nM THP
Text: as §1, §2

**Q.** `CC(=O)[C@H]1CC[C@H]2[C@@H]3CC[C@H]4C[C@H](O)CC[C@]4(C)[C@H]3CC[C@]12C` [THP, 3α-OH-5α[β]-pregnan-20-one] was tested. Which “effect on outward current” value [1] did it give?
**A.** either increased or had no effect

**Q.** And the “effect on outward current” value [2]?
**A.** either increased or had no effect
